These results are taken from paper PMC8632988, “Inhibition of SYK and cSrc kinases can protect bone and cartilage in preclinical models of osteoarthritis and rheumatoid arthritis” (Scientific Reports, 2021).

Where “and” joins values, the source holds several entries; their conditions need not be identical. Equal entries are not always repeated.

One data set relates to THP-1 cells. The experiment in a line: Inhibition of TNF-α secretion by activated monocytes. Type of data set: cell-based. Conditions: Homo sapiens, differentiated monocytes, IgG-coated plates, read-out: IC50, inhibition of TNF-α release. On the procedure:
The assay was performed at A. N. Bakh Institute of Biochemistry, Russia. Human leukemia monocytic THP-1 cells obtained from Russian collection cell cultures (RCCC) were cultured in 5% CO2 humidified atmosphere at 37 °C in RPMI 1640 supplemented with 100 U mL^–1 penicillin/streptomycin, 2% FBS and 20 μM β-mercaptoethanol. THP-1 cells were incubated in 5% CO2 atmosphere at 37 °C in RPMI 1640 medium. To induce differentiation the cells were treated with IFN-g for six days. 96-well culture plate coated with combined human IgG were incubated during night at 4 °C (or for 1 h at 37 °C). To evaluate baseline cell simulation F(ab’)2 was used as a negative control in part of wells. Unbounded antibodies were removed with sodium-phosphate buffer. A solution of test compound (MT-SYK-03 or) and differentiated cells in cultivating medium were added in each well. […] Each concentration was tested in triplicate; the experiment was replicated twice. For dose–response curve see Fig. S3.

In a further data set the test system is rat primary chondrocytes. The data set can be described thus: Hypertrophic-like changes in IL-1β treated primary chondrocytes. Type of data set: cell-based. Conditions: for Relative fold expression, aggrecan / Relative fold expression, type II collagen: control = 1. How it is done: The experiment was performed at Atlantic Bone Screen, France. To isolate primary chondrocytes, Sprague Dawley 3 weeks old rats were euthanized and their hind limbs were collected. Knee cartilage shavings were digested with collagenase in serum-free Dulbecco’s Modified Eagle’s Medium (DMEM). Once digested, the cell suspension was centrifuged and resuspended in DMEM containing 10% fetal bovine serum (FBS). Then the cells were plated on tissue culture plastic at a density of 10 000 cells∙cm^−2 and were amplified in monolayer in culture medium (DMEM/FCS-10% supplemented with HEPES (25 mM)) until passage 1 and frozen at − 80 °C. Before study rat’s chondrocytes were seeded and cultured in monolayers in 12-well plates for 24 h. After that the cells were treated for three days with IL-1β (10 ng/mL) and MT-SYK-03; […] and vehicle (DMSO, 0.3% in cell medium) controls were also carried out in triplicate. At the end of the treatment, chondrocytes were lysed, and total RNA was purified using the NucleoSpin RNA II kit (Macherey Nagel). Total RNAs (2 μg) were retro-transcribed using M-MLV RT (Lifetechnologies) and obtained cDNAs (10 ng) were used for qPCR to determine steady-state levels of type II collagen and aggrecan mRNAs (levels of RPL19 and β-actin mRNAs were used as controls). Each reaction was set up as follows: 5 μL of iQ SYBR Green Supermix (Biorad, ref 1,708,882), 0.6 μL of forward primer (5 μM), and 0.6 μL of reverse primer (5 μM), 1.8 μL H2O, and 2 μL of cDNA. All qPCRs (72 qPCRs per marker) were run on a DNA Engine Thermal Cycler Chromo 4 in triplicates and analyzed using REST software.

Data set [1] in a line: Pharmacokinetics after single oral administration to rabbits. Conditions: single oral 50 mg/kg. Type of data set: in vivo, rabbit. How it is done: Experiments were performed at ChemPartner, Shanghai, China and approved by Institutional Ethics Committee (IEC) of ChemPartner. Male Wistar 10–12 weeks old rats with body weights of 185–220 g and male New Zealand rabbits with body weights of 2.0–2.3 kg were purchased from Shanghai SLAC Laboratory Animal Co., Ltd. MT-SYK-03 was administered to the three groups of rats (six rats per group) via oral gavage at 10 mL/kg concentration, and in rabbits 5 mL/kg concentration. Blood samples were kept on ice and centrifuged (2000 g, 4 ℃, 5 min) within 15 min post sampling.

Data set [2] has as its system Sprague-Dowley rats, medial meniscal tear (MMT) model. The data set can be described thus: Surgically induced meniscal tear OA in rats. Type of data set: in vivo, rat. Conditions: day 21. On the procedure:
Medial meniscal tear (MMT) model was performed at Pharmenterprises, Russia according to the published procedure[31] and approved by Ethics Committee of Pharmenterprises. Male 4-month old Sprague-Dowley rats were anesthetized with Zoletil (Vibrac, France) and Xylazine (Interchemie werken "De Adelaar" BV, Netherlands) mixture. The medial collateral ligament was transected, and the medial meniscus was grasped with a hemostat and reflected proximally toward the femur. The meniscus was transected and then skin was closed with sutures. 60–90 min after surgery rats were subcutaneously injected with flexoprofen (VIC GROUP, Russia). Treatment groups (20 rats each) were intragastrically treated with MT-SYK-03 (100 and 500 mg/kg) or vehicle control (0.5% methylcellulose solution) 24 h before OA induction and then once daily for 21 day. Active control group was subcutaneously injected with zoledronic acid (0.1 mg/kg) 24 h before OA induction and then once every three days for 21 day. After 21 day animals were sacrificed; surgically operated right knee was removed and used for image analysis.

Data set [3] addresses T1, SYK (Homo sapiens, UniProt P43405). The data set can be described thus: SYK inhibition luminescent assay. Type of data set: biochemical. Also noted: 6xHis; made in house; host or cells: Sf9. On the procedure:
Luminescent assay was performed at A. N. Bakh Institute of Biochemistry (Moscow, Russia). Recombinant 6xHis-SYK kinase (expressed in Sf9 cells) was obtained as described previously. […] After incubation (20 min) Kinase-Glo reagent (Promega) was added. The luminescence was detected using the Fusion Universal Microplate Analyzer (PerkinElmer USA).

Data set [4] concerns the target T1, SYK. The experiment in a line: SYK inhibition radiometric assay. The class given is biochemical. Also noted: 6xHis; GST; purchased EMD Millipore Corporation (UK), assay service; host or cells: Sf21. How it is done: Radiometric assay was performed at EMD Millipore Corporation (UK) by measuring the extent of substrate phosphorylation by 6xHis-SYK (expressed in Sf21 cells) using the standard protocol.

The target of data set [5] is T1, SYK. The data set can be described thus: Kinase selectivity profile assay. Type of data set: biochemical. Further details: purchased Reaction Biology Corporation. Conditions: 500 nM; relative to DMSO; read-out: Residual enzymatic activity. From the text: Kinase activity data was expressed as the percent remaining kinase activity in test samples compared to vehicle (dimethyl sulfoxide) reactions based on the radioactivity of reaction products (see Table S2). Experiment was replicated twice.

The mark [6] stands for this setting: male, New Zealand, rabbit, plasma.
Where [7] appears, read: 100 mg/kg intragastrically once daily.
The mark [8] stands for this setting: 500 mg/kg intragastrically once daily.

As usually defined, the IC50 is the midpoint of a concentration-inhibition curve. As a reminder, the AUC(0-inf) is the area under the concentration-time curve extrapolated to infinity. Read a high AUC(0-inf) as more exposure. A word on the Cmax: it is the highest concentration seen after dosing. One may read the Tmax as the time at which the peak concentration occurs.

As to `COc1cc(Nc2ncnc(Nc3cc4c(cn3)NC(=O)C(C)(C)O4)n2)cc(OC)c1OC` [MT-SYK-03], in the data set with THP-1 cells, the IC50 was determined as 0.48 µM. In the data set with rat primary chondrocytes (IL-1β 10 ng/mL, three days), the Aggrecan gene expression result is reported as “increased” and the “Type II collagen gene expression” value is listed as “increased”. In the data set on rat primary chondrocytes (IL-1β + MT-SYK-03 0.4 μM), the “Relative fold expression, aggrecan” value turned out to be 0.20 and the “Relative fold expression, type II collagen” value was found to be 0.12. Also, in the data set with rat primary chondrocytes (IL-1β + MT-SYK-03 2 μM), the “Relative fold expression, aggrecan” value is 0.42 and the “Relative fold expression, type II collagen” value is given as 0.12. Besides, in the data set on rat primary chondrocytes (IL-1β + MT-SYK-03 10 μM), the “Relative fold expression, aggrecan” value is recorded as 0.46 and the “Relative fold expression, type II collagen” value is recorded as 0.09. Further, in data set [1] (setting [6]), the AUC(0-inf) was determined as 121 µg·h/mL; the Cmax is 8570 ng/mL and 14.1 µM; the Tmax amounted to 6 ± 2.19 h; the k el is 2.67e-05 s⁻¹. Further, the AUC in data set [1] (male, New Zealand, rabbit, plasma, read-out: AUC48) stood at 119 µg·h/mL. For the same molecule, in data set [1], the MRT24 came out at 9.2 ± 0.66 h and the τ1/2 came to 7.41 ± 1.32 h. Further, in data set [2] (setting [7]), the Lesion area amounted to 37.3 ± 3.3% and the Lesion depth was determined as 72.5 ± 6.0%. Also, in data set [2] (setting [8]), the Lesion area was determined as 30.5 ± 2.8%; the Lesion depth is 35.0 ± 3.0% and 35.0 ± 3.0& %. Further, the IC50 at SYK [3] (read-out: IC50, luminescent assay) came to 0.023 µM. The IC50 on SYK [3] (span of luminescent and radiometric assays, read-out: IC50 (SYK), as given in Figure 1c) was 0.014 µM and 0.023 to 0.04 µM. Besides, the IC50 at SYK [4] is 0.04 ± 0.004 µM. Besides, at SYK [5], the remaining activity at 0.5 µM came to 57.4%.
